The values that follow come from patent publication US20260176289A1, “SMALL MOLECULE INHIBITORS OF KRAS PROTEINS” (Merck Sharp & Dohme LLC, priority 2022, published 2026).

One assay concerns the target KRAS-G12V (Homo sapiens, UniProt P01116, G12V). The assay can be described thus: SOS-catalyzed nucleotide exchange assay (Procedure A, TR-FRET), KRAS-G12V. The format is biochemical. The settings on record: nucleotide exchange, read-out: KRAS G12V GNE IC50. Summed up:
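Signal ratio (520/495 nm, excitation 340 nm) reports Bodipy-GDP retention on biotinylated RAS after SOS-catalyzed exchange with 3 mM GTP. SOS was 40 nM, except 160 nM for G12V. Room-temperature exchange lasted 60 min (90 min for G12V), following a 60 min compound preincubation.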
(In general: Time-resolved FRET reads energy transfer from a long-lived donor to a nearby acceptor.)

The next assay concerns SW620 cells. The assay can be described thus: Cellular phospho-ERK assay, SW620 cells (homozygous KRAS-G12V). The format is cell-based. The settings on record: Homo sapiens, SW-620, KRAS-G12V, 2 hours, read-out: SW620 pERK IC50. Summed up: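 Cells were seeded overnight, then treated 2 h at 37° C with compound in a 10-point, 1:3 titration from 30 μM top final concentration. Lysates were assayed by AlphaLISA SureFire Ultra for p-ERK and total ERK. IC50 came from a 4-parameter logistic fit of the p-ERK/total ERK ratio.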

In another assay the target is NRAS (Homo sapiens, UniProt P01111). The assay can be described thus: SOS-catalyzed nucleotide exchange assay (Procedure A, TR-FRET), NRAS. The format is biochemical. The conditions noted are these: read-out: NRAS GNE IC50. The text has this: Procedure for SOS-Catalyzed Nucleotide Exchange Assay for KRAS-WT, G12C/D/V, G13D, HRAS, and NRAS (Procedure A)
Sequence of NRAS (P01111 with tags, fused parts or gaps): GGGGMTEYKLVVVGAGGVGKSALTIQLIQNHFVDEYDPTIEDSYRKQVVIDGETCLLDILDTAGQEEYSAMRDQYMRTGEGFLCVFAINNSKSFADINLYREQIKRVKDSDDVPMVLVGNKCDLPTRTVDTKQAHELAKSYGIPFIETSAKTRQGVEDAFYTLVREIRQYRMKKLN
Recombinant KRAS-G12C protein used in this assay has an additional triple mutation (C51S/C80L/C118S). Whereas KRAS-WT, G12D/V, G13D, HRAS and NRAS are in context of their WT protein sequence background. Specifically, the SOS-catalyzed nucleotide exchange assay utilizes a preformed TR-FRET complex containing a specific biotinylated RAS protein (KRAS-WT, G12C/V/D, G13D, HRAS, NRAS; described above) with Bodipy-GDP, and Terbium-streptavidin. Compounds are preincubated with this complex for 60 minutes. Subsequently, recombinant human SOS protein and unlabeled GTP are added to initiate the exchange reaction. Small molecule inhibitors stabilize the Bodipy-GDP complex whereas the untreated protein rapidly exchanges Bodipy-GDP for unlabeled GTP resulting in reduced TR-FRET signal.
To assemble the preformed TR-FRET complexes, each biotinylated RAS protein is diluted to 2 μM in an EDTA Buffer (20 mM HEPES pH 7.5, 50 mM sodium chloride, 10 mM EDTA, and 0.01% Tween) and incubated at room temperature for one hour. This mixture is then further diluted to 90 nM in an Assay Buffer (20 mM HEPES pH 7.5, 150 mM sodium chloride, 10 mM magnesium chloride, and 0.005% Tween) containing 15 nM of Terbium-Streptavidin (Invitrogen, catalog #PV3577) and 900 nM of Bodipy-GDP (Invitrogen, catalog #G22360) and incubated at room temperature for six hours. It should be noted that this preformed TR-FRET complex for each of the RAS protein were made ahead of time, aliquoted and stored at −80° C. until the day of the experiment.
Each test compound (10 mM stock in DMSO) is diluted in DMSO to make a final-10-point, 3-fold dilution and is acoustically dispensed into a 384-well assay plate (Corning, catalog #3820) using an Echo 550 (Labcyte). Each well of the assay plate receives 3 μL of a specific 3×RAS preformed TR-FRET complex and 3 μL of Assay Buffer and is incubated at room temperature for 60 minutes (preincubation time). Each well then receives 3 μL of 3×recombinant human SOS protein and GTP (Sigma, G8877) in Assay Buffer and is incubated at room temperature for 30 minutes (G13D), 60 minutes (KRAS WT/G12C/D, H/NRAS) or 90 minutes for G12V. […]
The time-resolved fluorescence resonance energy transfer (TR-FRET) signal is measured on an Envision (PerkinElmer) plate reader: Excitation filter=340 nm; emission 1=495 nm; emission2=520 nm; dichroic mirror=D400/D505; delay time=[…]. The signal of each well is determined as the ratio of the emission at 520 nm to that at 495 nm. Percent effect of each well is determined after normalization to control wells containing DMSO (no effect) or a saturating concentration of inhibitor (max effect). […]

Sequence of KRAS-G12V (P01116 with tags, fused parts or gaps isoform P01116-2 G12V): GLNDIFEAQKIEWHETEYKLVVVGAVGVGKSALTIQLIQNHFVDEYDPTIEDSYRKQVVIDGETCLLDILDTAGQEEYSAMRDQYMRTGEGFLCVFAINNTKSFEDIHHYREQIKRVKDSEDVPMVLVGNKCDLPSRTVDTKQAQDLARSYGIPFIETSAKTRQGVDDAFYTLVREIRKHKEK

Broadly, the IC50 is the concentration that gives 50% inhibition. As to `C#Cc1c(F)ccc2cc(O)cc(-c3nccc4c5c(N6CCOC[C@@](C)(O)C6)nc(OC[C@@]67CCCN6C[C@H](F)C7)nc5n(C)c34)c12` [Ex-18, (S)-4-(8-(8-ethynyl-7-fluoro-3-hydroxynaphthalen-1-yl)-2-(((2R,7aS)-2-fluorotetrahydro-1H-pyrrolizin-7a(5H)-yl)methoxy)-9-methyl-9H-pyrido[4′,3′:4,5]pyrrolo[2,3-d]pyrimidin-4-yl)-6-methyl-1,4-oxazepan-6-ol], the values for the IC50 on KRAS-G12V, with SW620 cells and on NRAS were 0.00385 µM, 0.0131 µM and 8.82 µM, respectively.
